Assay results from US20020183300A1, “Zinc ionophores as anti-stress agents” (priority 2001, published 2002).

Legend:
[1] = system: cultured HUVEC, isolated cardiac myocytes, cultured cerebellar neurons; experiment: Zinc ionophore screening with Fura-2 loaded cells (fluorescence ratio 340/380 nm); type: cell-based, human; rabbit; mouse; settings: for ionophore activity compared across cell types: HUVEC, cardiac myocytes, cerebellar neurons; for zinc ionophore activity (slope of Fura-2 fluorescence intensity ratio): zinc-complexed holo-ionophore, 1 μM in superfusion buffer, 37° C.
Experimental: Human umbilical vein endothelial cells (HUVEC) were purchased from Clonetics (San Diego, Calif.) and passages DeKeyser F. G. et al. (2000) Neuroimmunomodulation 7:182-188; Revilla V. et al. Brain Res. Bull 49:413-418; Troullos E. et al. (1997) Clin. Pharmacol. Ther. 62:74-81 were used for these studies. Cells were cultured on flame-sterilzed glass coverslips in Endothelial Basal Medium (Clonetics) supplemented with 10 ng/ml human recombinant epidermal growth factor, 1.0 ug/ml hydrocortisone, 50 ug/ml gentamicin, 50ng/ml amphotetericin B, 12 ug/ml bovine brain extract and 2% v/v fetal bovine serum (all from Clonetics), in a humidified chamber at 37° C. and 5% CO2. To maintain cell populations, proliferating HUVEC were passaged at 80-90% confluency.
Cardiac myocytes were isolated from the ventricular septum of adult rabbit hearts, following collagenase digestion, in a manner similar to that described previously (Turan, B. et al., (1997) Am. J. Physiol. 272:H2095-H2106). The modification consisted of introducing low concentrations of CaCl2 during the perfusion with collagenase and the dispersion of the myocytes. Hearts were perfused for about 2 min by gravity under a hydrostatic pressure of 1 m, with a nominally Ca^2+-free solution containing (in mM): NaCl, 145; KCl, 5; MgSO4, 1.2; Na2HPO4, 1.8; HEPES, 5; glucose, 10; pH adjusted to 7.4 with NaOH. Forty ml of this perfusate were then supplemented with collagenase (1 mg/ml) and perfusion was continued with recirculation. […] The flow rate was then adjusted to 15 ml/min and 50 μM CaCl2 was added to the collagenase solution. Perfusion with this solution was continued for another 15 to 18 min, followed by a 2 min washout of the enzyme with fresh perfusate containing 100 μM CaCl2 and no collagenase. The hearts were then removed from the apparatus and the ventricular septum isolated and minced. Dissociation of the cells was obtained by gentle agitation of the minced tissue in 50 ml of the same perfusing solution. Following filtration through a 200 μm nylon mesh, the cells were allowed to settle and the supernatant was replaced with a solution containing 2 mM CaCl2. Cells were kept at 37° C. in this pre-oxygenated solution and were studied within 8 hours after isolation, cellular viability was ensured by regularly replacing the incubation solution.
Primary cultures of mouse cerebellar granule neurons were obtained from dissociated cerebella of postnatal day 8 or 9 mice according to the following protocol (Cregan et al., (1999) J. Neurosci. 19:7860-7869, incorporated herein by reference). Brains were removed and placed into separate dishes containing solution A (124 mM NaCl, 5.37 mM KCl, 1 mM NaH2 P04, 1.2 mM MgSO4, 14.5 mM D-(1)-glucose, 25 mM HEPES, 3 mg/ml BSA, pH 7.4) in which the cerebella were dissected, meninges removed, and tissue sliced into small pieces. The tissue was briefly centrifuged and transferred to solution A containing 0.25 mg/ml trypsin, then incubated at 37° C. for 18 min. After the addition of 0.082 mg/ml trypsin inhibitor (Boehringer Mannheim, Indianapolis, Ind.) and 0.25 mg/ml DNase I (Boehringer Mannheim), the tissue was incubated at 25° C. for 2 min. After a brief centrifugation, the resulting pellet was gently titrated in solution A yielding suspension that was further incubated for 10 min at 25° C. in solution A containing 2.7 mM MgSO4 and 0.03 mM CaCl2. After a final centrifugation the pellet was resuspended in EMEM media (Sigma, St. Louis, Mo.) containing 10% dialyzed FBS (Sigma), 25 mM KCl, 2 mM glutamine (Life Technologies BRL, Gaithersburg, Md.), 25 mM glucose, and 0.1 mg/ml gentamycin (Sigma) and filtered through a cell strainer (size 70 μm; Falcon). Cells were plated on glass coverslips coated with poly-D-lysine (Sigma) in Nunc fourwell dishes at a density of 1.5×10^6 cells per milliliter of medium. Cytosine-arabinoside (10 μM; Sigma) was added 24 hr after plating.

NF-κB = NF-κB electrophoretic mobility shift assay on brain nuclear extracts, coronary artery ligation model; type: in vivo, rat; settings: rats subjected to coronary occlusion 45 min, reperfusion 4 h; i.v. boluses at 0, 1, 2 h postreperfusion; ZnP 1.2 μg/kg, ZnDDC 8.3 ng/kg
Experimental: (§1) Coronary artery ligation model Male Sprague-Dawley rats (250-300 g) were anesthetized, intubated and ventilated. The chest was opened and the coronary artery was ligated. After 45 min, the suture was released and reperfusion was continued for 4 h. Boluses (0.5 ml) of the zinc ionophores ZnP (1.2 μg/kg) and ZnDDC (8.3 ng/kg) were administered intravenously in 4% DMSO in saline at 0, 1, and 2 h postreperfusion. After 4 h of reperfusion the ligature was retied, and Evans blue dye was infused intravenously to demarcate the area at risk. The rats were then killed by exsanguination and the brain was collected for analysis. Sham-surgery rats were treated in an identical manner but without tying the ligature around the coronary artery.
(§2) Brain samples were homogenized on ice using six slow strokes of a Teflon pestle homogenizer at 1000 rpm in 8 volumes of buffer containing 0.25 M sucrose, 10 mM HEPES, pH 7.6, 25 mM KCl, 1 mM EDTA, 10% glycerol, 0.15 mM spermine, and 0.5 mM spermidine. […] Protein concentrations were determined using the Bio Rad protein assay.
(§3) Double-stranded consensus oligonucleotides for NF-kB and Spl (Promega, Madison, Wis.) were 5 radiolabelled with g[^32P]ATP (Amersham, Arlington Heights, Ill.). […] The intensity of the bands was quantitated with a densitometer and commercially available software (Molecular Analyst, Bio-Rad Laboratories, Hercules, Calif.).

Spl = Spl electrophoretic mobility shift assay on brain nuclear extracts, coronary artery ligation model; type: in vivo, rat; settings: rats subjected to coronary occlusion 45 min, reperfusion 4 h; ZnDDC 8.3 ng/kg i.v. at 0, 1, 2 h postreperfusion
Experimental: as §1, §2, §3

Oc1c(I)cc(I)c2cccnc12 [5,7-Diiodo-8-hydroxyquinoline]
zinc-ionophore properties [1]: possess zinc-ionophore properties
ionophore activity compared across cell types [1]: comparable in all three cell types tested
zinc ionophore activity (slope of Fura-2 fluorescence intensity ratio) [1]: 5,7-Diiodo-8-hydroxyquinoline ✓✓

Oc1cccc2cccnc12 [8-Hydroxyquinoline]
zinc-ionophore properties [1]: possess zinc-ionophore properties
zinc ionophore activity (slope of Fura-2 fluorescence intensity ratio) [1]: 8-Hydroxyquinoline, ✓

CCN(CC)C(=S)SSC(=S)N(CC)CC [Disulfiram]
zinc ionophore activity (slope of Fura-2 fluorescence intensity ratio) [1]: Disulfiram ✓✓

COc1ccc2c(c1)c(CC(=O)O)c(C)n2C(=O)c1ccc(Cl)cc1 [Indomethacin]
zinc ionophore activity (slope of Fura-2 fluorescence intensity ratio) [1]: Indomethacin ✓

S=C(S)N1CCCC1 [Pyrrolidinedithiocarbamate]
zinc ionophore activity (slope of Fura-2 fluorescence intensity ratio) [1]: Pyrrolidinedithiocarbamate ✓✓

CC1=C(/C=C/C(C)=C/C=C/C(C)=C/CO)C(C)(C)CCC1 [Vitamin A (all-trans-retinol), all-trans-retinol]
zinc-ionophore properties [1]: possess zinc-ionophore properties
zinc ionophore activity (slope of Fura-2 fluorescence intensity ratio) [1]: Vitamin A (all-trans-retinol) ✓

Cc1c(C)c2c(c(C)c1O)CC[C@@](C)(CCC[C@H](C)CCC[C@H](C)CCCC(C)C)O2 [Vitamin E, alpha-tocopherol]
zinc-ionophore properties [1]: possess zinc-ionophore properties

CCN(CC)C(=S)S [ZNDDC, zinc-diethyldithiocarbamate]
zinc-ionophore properties [1]: possess zinc-ionophore properties
ionophore activity compared across cell types [1]: comparable in all three cell types tested
zinc ionophore activity (slope of Fura-2 fluorescence intensity ratio) [1]: diethyldithiocarbamate ✓✓
NF-κB binding activity in the brain (NF-κB): restored normal NF-κB binding activity
Spl binding activity in the brain (in words) (Spl): restored Spl binding activity to normal
